Results from ChEMBL document CHEMBL4706752 (ACS Med Chem Lett, 2021).

Experiments:
[1] = AUC in cynomolgus monkey at 2 mg/kg, po; format: ADME, organism-based, Macaca fascicularis; set-up: dose 2 mg/kg; conditions: in vivo
[2] = Tmax in Balb/c mouse at 4 mg/kg, po; format: ADME, organism-based; conditions: in vivo
[3] = Oral bioavailability in Sprague-Dawley rat at 4 mg/kg; format: ADME, organism-based; conditions: in vivo
[4] = Half life in Balb/c mouse at 2 mg/kg, iv; format: ADME, organism-based; conditions: in vivo
[5] = biological target: T1, Nuclear receptor ROR-alpha (Homo sapiens, UniProt P35398); assay: Inhibition of RORalpha (unknown origin)
T1 sequence (P35398 whole entry): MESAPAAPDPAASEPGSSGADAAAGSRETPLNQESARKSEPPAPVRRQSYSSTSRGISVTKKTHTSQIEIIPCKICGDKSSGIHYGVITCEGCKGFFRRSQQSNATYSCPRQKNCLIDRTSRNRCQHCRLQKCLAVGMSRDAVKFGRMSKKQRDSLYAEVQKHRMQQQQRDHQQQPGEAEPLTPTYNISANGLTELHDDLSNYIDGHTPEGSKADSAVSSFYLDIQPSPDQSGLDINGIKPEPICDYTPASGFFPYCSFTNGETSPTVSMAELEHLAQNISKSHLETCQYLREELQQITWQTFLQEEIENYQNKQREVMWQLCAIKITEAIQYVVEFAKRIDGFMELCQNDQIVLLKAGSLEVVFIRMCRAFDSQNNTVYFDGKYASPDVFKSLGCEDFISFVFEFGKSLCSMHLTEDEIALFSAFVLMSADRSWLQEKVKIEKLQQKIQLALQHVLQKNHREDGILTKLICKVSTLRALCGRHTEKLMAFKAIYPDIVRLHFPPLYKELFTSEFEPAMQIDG

[6] = Decrease in LCN2 gene expression in C57BL/6 mouse model of IL-23 induced acanthosis model of psoriasis at 5 mg/kg, po BID for 10 days by RT-PCR analysis; format: functional; conditions: C57BL/6, po, 240 h, time 10 day
[7] = tested on: Mus musculus; assay: Antiinflammatory activity in DBA/1J mouse model of collagen-induced arthritis assessed as reduction in plasma IL-6 level at 20 mg/kg, po dosed twice daily for 21 days (reference value: 80 +/- 6 pg/ml); format: functional; conditions: time 21 day
[8] = Protein binding in mouse serum assessed as fraction unbound; format: ADME, cell-free; conditions: read-out: PB
[9] = Cmax in dog at 2 mg/kg, po; format: ADME, organism-based, Canis lupus familiaris; set-up: route oral, dose 2 mg/kg; conditions: in vivo
[10] = Cmax in Balb/c mouse at 4 mg/kg, po; format: ADME, organism-based; set-up: route oral, dose 4 mg/kg; conditions: in vivo
[11] = tested on: Mus musculus; assay: Suppression of ear thickness in C57BL/6 mouse model of IL-23 induced acanthosis model of psoriasis assessed as AUC of %change in ear thickness at 10 mg/kg, po BID for 10 days measured every other day; format: functional; conditions: time 10 day
[12] = Half life in Sprague-Dawley rat at 2 mg/kg, iv; format: ADME, organism-based; conditions: in vivo
[13] = Metabolic stability in mouse liver microsomes assessed as compound remaining after 10 mins; format: ADME, Microsome; conditions: read-out: Stabilty
[14] = Unbound volume of distribution at steady state in dog at 1 mg/kg, iv; format: ADME, organism-based, Canis lupus familiaris; conditions: in vivo
[15] = Unbound volume of distribution at steady state in Sprague-Dawley rat at 2 mg/kg, iv; format: ADME, organism-based; conditions: in vivo
[16] = Protein binding in human serum assessed as fraction unbound; format: ADME, cell-free; conditions: read-out: PB
[17] = AUC in Balb/c mouse at 4 mg/kg, po; format: ADME, organism-based; set-up: dose 4 mg/kg; conditions: in vivo
[18] = biological target: Cytochrome P450 3A4 (Homo sapiens, UniProt P08684); assay: Inhibition of CYP3A4 (unknown origin); format: ADME
Sequence of Cytochrome P450 3A4 (P08684 whole entry): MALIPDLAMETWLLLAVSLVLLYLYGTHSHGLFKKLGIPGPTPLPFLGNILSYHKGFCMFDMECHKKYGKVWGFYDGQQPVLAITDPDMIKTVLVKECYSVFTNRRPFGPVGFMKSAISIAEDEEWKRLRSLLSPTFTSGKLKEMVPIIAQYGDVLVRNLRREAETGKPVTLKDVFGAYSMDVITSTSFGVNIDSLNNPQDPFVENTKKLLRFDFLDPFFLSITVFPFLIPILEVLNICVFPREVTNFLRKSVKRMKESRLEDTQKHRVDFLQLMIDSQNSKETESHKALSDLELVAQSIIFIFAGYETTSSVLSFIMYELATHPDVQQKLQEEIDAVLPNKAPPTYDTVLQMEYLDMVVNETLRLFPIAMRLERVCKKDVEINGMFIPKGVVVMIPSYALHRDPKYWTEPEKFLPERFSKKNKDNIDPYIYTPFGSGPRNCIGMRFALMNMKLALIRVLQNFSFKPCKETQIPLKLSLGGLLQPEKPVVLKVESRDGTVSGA

[19] = AUC in dog at 1 mg/kg, iv; format: ADME, organism-based, Canis lupus familiaris; set-up: dose 1 mg/kg; conditions: in vivo
[20] = Oral bioavailability in dog at 2 mg/kg; format: ADME, organism-based, Canis lupus familiaris; conditions: in vivo
[21] = Decrease in IL-6 gene expression in C57BL/6 mouse model of IL-23 induced acanthosis model of psoriasis at 20 mg/kg, po BID for 10 days by RT-PCR analysis; format: functional; conditions: C57BL/6, po, 240 h, time 10 day
[22] = Decrease in IL-17a gene expression in C57BL/6 mouse model of IL-23 induced acanthosis model of psoriasis at 20 mg/kg, po BID for 10 days by RT-PCR analysis; format: functional; conditions: C57BL/6, po, 240 h, time 10 day
[23] = Unbound volume of distribution at steady state in Balb/c mouse at 2 mg/kg, iv; format: ADME, organism-based; conditions: in vivo
[24] = Oral bioavailability in Balb/c mouse at 4 mg/kg; format: ADME, organism-based; conditions: in vivo
[25] = Unbound volume of distribution at steady state in cynomolgus monkey at 1 mg/kg, iv; format: ADME, organism-based, Macaca fascicularis; conditions: in vivo
[26] = Cmax in cynomolgus monkey at 2 mg/kg, po; format: ADME, organism-based, Macaca fascicularis; set-up: route oral, dose 2 mg/kg; conditions: in vivo
[27] = tested on: Mus musculus; assay: Suppression of ear thickness in C57BL/6 mouse model of IL-23 induced acanthosis model of psoriasis assessed as AUC of %change in ear thickness at 20 mg/kg, po BID for 10 days measured every other day; format: functional; conditions: time 10 day
[28] = tested on: Mus musculus; assay: Antiinflammatory activity in DBA/1J mouse model of collagen-induced arthritis assessed as reduction in plasma IL-6 level at 5 mg/kg, po dosed twice daily for 21 days (reference value: 80 +/- 6 pg/ml); format: functional; conditions: time 21 day
[29] = biological target: T2, Oxysterols receptor LXR-beta (Homo sapiens, UniProt P55055); assay: Inhibition of LXRbeta (unknown origin)
T2 sequence (P55055 whole entry): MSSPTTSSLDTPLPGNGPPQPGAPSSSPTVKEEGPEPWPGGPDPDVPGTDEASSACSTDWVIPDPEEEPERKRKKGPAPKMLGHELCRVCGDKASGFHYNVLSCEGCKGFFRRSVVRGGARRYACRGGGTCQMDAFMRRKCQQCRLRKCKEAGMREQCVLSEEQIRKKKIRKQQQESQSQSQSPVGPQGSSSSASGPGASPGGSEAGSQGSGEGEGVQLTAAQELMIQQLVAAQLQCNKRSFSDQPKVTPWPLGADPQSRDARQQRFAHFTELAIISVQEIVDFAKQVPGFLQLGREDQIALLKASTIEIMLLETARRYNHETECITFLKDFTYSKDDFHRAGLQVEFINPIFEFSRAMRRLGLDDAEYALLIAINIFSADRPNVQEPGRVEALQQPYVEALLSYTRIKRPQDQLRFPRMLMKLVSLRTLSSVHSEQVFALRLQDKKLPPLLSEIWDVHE

[30] = Half life in dog at 1 mg/kg, iv; format: ADME, organism-based, Canis lupus familiaris; conditions: in vivo
[31] = AUC in cynomolgus monkey at 1 mg/kg, iv; format: ADME, organism-based, Macaca fascicularis; set-up: dose 1 mg/kg; conditions: in vivo
[32] = Tmax in Sprague-Dawley rat at 4 mg/kg, po; format: ADME, organism-based; conditions: in vivo
[33] = AUC in Sprague-Dawley rat at 2 mg/kg, iv; format: ADME, organism-based; set-up: dose 2 mg/kg; conditions: in vivo
[34] = tested on: Mus musculus; assay: Suppression of ear thickness in C57BL/6 mouse model of IL-23 induced acanthosis model of psoriasis at 5 to 20 mg/kg, po BID for 10 days measured every other day; format: functional, organism-based; conditions: dose 5-20 mg/kg, time 10.0 day
[35] = Tmax in dog at 2 mg/kg, po; format: ADME, organism-based, Canis lupus familiaris; conditions: in vivo

C[C@@](O)(CS(C)(=O)=O)C(=O)N[C@@H]1CC[C@@]2(S(=O)(=O)c3ccc(F)cc3)c3ccc(C(F)(C(F)(F)F)C(F)(F)F)nc3CC[C@@H]12
AUC [1]: 13.2 µM·h
Tmax [2]: 2 h
bioavailability [3]: 85%
half-life [4]: 11 h
EC50 [5]: > 10 µM
inhibition in vivo at 5 mg/kg [6]: 62.4%
Activity [7]: 19 pg/mL
fraction unbound [8]: 0.015
Cmax [9]: 1700 nM
Cmax [10]: 2800 nM
Activity [11]: 66.5%
half-life [12]: 13 h
remaining at 10 min [13]: 98%
fVdss [14]: 1.3 L/kg
fVdss [15]: 2.5 L/kg
fraction unbound [16]: 0.022
AUC [17]: 45.9 µM·h
IC50 [18]: > 20 µM
AUC [19]: 114 µM·h
bioavailability [20]: 72%
inhibition in vivo at 20 mg/kg [21]: 77.4%
inhibition in vivo at 20 mg/kg [22]: 87.7%
fVdss [23]: 2.2 L/kg
bioavailability [24]: 101%
fVdss [25]: 2.7 L/kg
Cmax [26]: 600 nM
Activity [27]: 77.2%
Activity [28]: 26 pg/mL
EC50 [29]: > 10 µM
half-life [30]: 67 h
AUC [31]: 9 µM·h
Tmax [32]: 4 h
AUC [33]: 26.3 µM·h
Activity [34]: Dose-dependent effect
Tmax [35]: 7 h
